Experimental data: ChEMBL document CHEMBL4419173, “Small-molecule inhibitors targeting g-protein-coupled rho guanine nucleotide exchange factors” (2014)
pIC50, pKd: −log10 of the molar value. Active and inactive are the calls of the source. The calls are words filed in the database; no cut-off is given here.

Columns and labels:
MCF7 [1] = test: Inhibition of RhoGEF in human MCF7 cells derived mammospheres assessed as inhibition of 10% calf serum-induced RhoA-GTP formation at 2.5 uM in presence of 2.5 uM Rhosin/G04 incubated for 24 hrs by densitometry relative to control; type: cell-based
MCF7 [2] = test: Inhibition of RhoGEF in human MCF7 cells derived mammospheres assessed as inhibition of RhoA-mediated phospho-MLC formation at 10 uM incubated for 24 hrs by densitometry; type: cell-based
MCF7 [3] = test: Inhibition of RhoGEF in human MCF7 cells derived mammospheres assessed as inhibition of 10% calf serum-induced RhoA-GTP formation by measuring relative RhoA-GTP level at 30 uM incubated for 24 hrs by densitometry (reference value: 1); type: cell-based
MCF7 [4] = test: Inhibition of RhoGEF in human MCF7 cells derived mammospheres assessed as inhibition of 10% calf serum-induced RhoA-GTP formation by measuring relative RhoA-GTP level at 10 uM incubated for 24 hrs by densitometry (reference value: 1); type: cell-based
MCF7 [5] = test: Inhibition of RhoGEF in human MCF7 cells derived mammospheres assessed as inhibition of 10% calf serum-induced RhoA-GTP formation by measuring relative RhoA-GTP level at 5 uM incubated for 24 hrs by densitometry (reference value: 1); type: cell-based
MCF7 [6] = test: Inhibition of cell invasion of human MCF7 cells at 10 to 50 uM by Matrigel-coated transwell based assay; type: functional
Mus musculus [7] = organism: Mus musculus; test: Inhibition of RhoGEF in mouse NIH/3T3 cells assessed as inhibition of 10% calf serum-induced RhoA-GTP formation by measuring relative RhoA-GTP level at 30 uM incubated for 24 hrs by densitometry (reference value: 1); type: cell-based
Mus musculus [8] = organism: Mus musculus; test: Inhibition of RhoGEF in mouse NIH/3T3 cells assessed as inhibition of 10% calf serum-induced RhoA-GTP formation by measuring relative RhoA-GTP level at 10 uM incubated for 24 hrs by densitometry (reference value: 1); type: cell-based
[9] = target: T1, RhoGEF 1/Transforming protein RhoA (Homo sapiens) (UniProt P61586+Q92888); test: Binding affinity to human LARG (765 to 1138 residues) DH-PH module expressed in mouse NIH/3T3 cells assessed as reduction in LARG binding to human full length RhoA (1 to 193 residues) by measuring relative LARG binding level at 15 uM in presence of 15 uM Rhosin/G04 pull-down assay (reference value: 1 No unit); type: cell-based
[10] = target: T1, RhoGEF 1/Transforming protein RhoA (Homo sapiens); test: Binding affinity to human LARG (765 to 1138 residues) DH-PH module expressed in mouse NIH/3T3 cells assessed as reduction in LARG binding to human full length RhoA (1 to 193 residues) by measuring relative LARG binding level at 2.5 uM in presence of 2.5 uM Rhosin/G04 pull-down assay (reference value: 1 No unit); type: cell-based
[11] = target: T1, RhoGEF 1/Transforming protein RhoA (Homo sapiens); test: Binding affinity to human LARG (765 to 1138 residues) DH-PH module expressed in mouse NIH/3T3 cells assessed as reduction in LARG binding to human full length RhoA (1 to 193 residues) by measuring relative LARG binding level at 50 uM pull-down assay (reference value: 1 No unit); type: cell-based
Mus musculus [12] = organism: Mus musculus; test: Inhibition of RhoGEF in mouse NIH/3T3 cells assessed as inhibition of 10% calf serum-induced RhoA-GTP formation by measuring reduction in RhoA-GTP level at 5 uM in presence of 5 uM Rhosin/G04 incubated for 24 hrs by densitometry relative to control; type: cell-based
[13] = target: T2, Rho guanine nucleotide exchange factor 12 (Homo sapiens, UniProt Q9NZN5); test: Inhibition of human LARG (765 to 1138 residues) RhoGEF binding to human full length RhoA (1 to 193 residues)
Mus musculus [14] = organism: Mus musculus; test: Inhibition of RhoGEF in mouse NIH/3T3 cells assessed as inhibition of 10% calf serum-induced Cdc42-GTP formation by measuring Cdc42-GTP level at 10 uM incubated for 24 hrs by densitometry relative to control (reference value: 3.25); type: cell-based
Mus musculus [15] = organism: Mus musculus; test: Inhibition of RhoGEF in mouse NIH/3T3 cells assessed as inhibition of 10% calf serum-induced Cdc42-GTP formation by measuring Cdc42-GTP level at 30 uM incubated for 24 hrs by densitometry relative to control (reference value: 3.25); type: cell-based
Mus musculus [16] = organism: Mus musculus; test: Inhibition of RhoGEF in mouse NIH/3T3 cells assessed as inhibition of 10% calf serum-induced Rac1-GTP formation by measuring Rac1-GTP level at 10 uM incubated for 24 hrs by densitometry relative to control (reference value: 2.86); type: cell-based
Mus musculus [17] = organism: Mus musculus; test: Inhibition of RhoGEF in mouse NIH/3T3 cells assessed as inhibition of 10% calf serum-induced Rac1-GTP formation by measuring Rac1-GTP level at 30 uM incubated for 24 hrs by densitometry relative to control (reference value: 2.86); type: cell-based
Mus musculus [18] = organism: Mus musculus; test: Inhibition of RhoGEF-mediated RhoA signaling in mouse NIH/3T3 cells assessed as inhibition of SDF1a-induced phospho-FAK formation at 10 to 30 uM incubated for 24 hrs by densitometry; type: cell-based
Mus musculus [19] = organism: Mus musculus; test: Inhibition of RhoGEF in mouse NIH/3T3 cells assessed as inhibition of 10% calf serum-induced RhoA-GTP formation incubated for 24 hrs by densitometry; type: cell-based
[20] = target: T2, Rho guanine nucleotide exchange factor 12; test: Binding affinity to recombinant human LARG (765 to 1138 residues) containing DH-PH catalytic module by microscale thermophoresis analysis
[21] = target: A-kinase anchor protein 13/Transforming protein RhoA (Homo sapiens) (UniProt P61586+Q12802); test: Inhibition of FLAG-tagged human LBC RhoGEF DH-PH module expressed in mouse NIH/3T3 cells assessed as reduction in human full length RhoA (1 to 193 residues) interaction with LBC RhoGEF at 10 to 50 uM incubated for 1 hr by Western blot analysis based His-RhoA pull-down assay; type: cell-based
[22] = target: CDC42/Intersectin-1 (Homo sapiens) (UniProt P60953+Q15811); test: Inhibition of GST-tagged human intersectin-1 RhoGEF (1227 to 1571 residues) expressed in mouse NIH/3T3 cells assessed as reduction in human full length Cdc42 (1 to 191 residues) interaction with intersectin-1 RhoGEF at 50 to 200 uM incubated for 1 hr by Western blot analysis based pull-down assay; type: cell-based
[23] = target: Rho GTPase-activating protein 35/Transforming protein RhoA (Homo sapiens) (UniProt P61586+Q9NRY4); test: Inhibition of human p190 expressed in mouse NIH/3T3 cells assessed as reduction in human full length RhoA (1 to 193 residues) interaction with p190 at 50 to 100 uM incubated for 1 hr by Western blot analysis based His-RhoA pull-down assay; type: cell-based
[24] = target: Triple functional domain protein (Homo sapiens, UniProt O75962); test: Binding affinity to GST-tagged human TrioN RhoGEF (1284 to 1711 residues) by microscale thermophoresis analysis
[25] = target: Intersectin-1 (Homo sapiens) (UniProt Q15811); test: Binding affinity to GST-tagged human intersectin-1 RhoGEF at 1 to 100000 nM by microscale thermophoresis analysis
Sequence of Intersectin-1 (Homo sapiens) (Q15811 whole entry): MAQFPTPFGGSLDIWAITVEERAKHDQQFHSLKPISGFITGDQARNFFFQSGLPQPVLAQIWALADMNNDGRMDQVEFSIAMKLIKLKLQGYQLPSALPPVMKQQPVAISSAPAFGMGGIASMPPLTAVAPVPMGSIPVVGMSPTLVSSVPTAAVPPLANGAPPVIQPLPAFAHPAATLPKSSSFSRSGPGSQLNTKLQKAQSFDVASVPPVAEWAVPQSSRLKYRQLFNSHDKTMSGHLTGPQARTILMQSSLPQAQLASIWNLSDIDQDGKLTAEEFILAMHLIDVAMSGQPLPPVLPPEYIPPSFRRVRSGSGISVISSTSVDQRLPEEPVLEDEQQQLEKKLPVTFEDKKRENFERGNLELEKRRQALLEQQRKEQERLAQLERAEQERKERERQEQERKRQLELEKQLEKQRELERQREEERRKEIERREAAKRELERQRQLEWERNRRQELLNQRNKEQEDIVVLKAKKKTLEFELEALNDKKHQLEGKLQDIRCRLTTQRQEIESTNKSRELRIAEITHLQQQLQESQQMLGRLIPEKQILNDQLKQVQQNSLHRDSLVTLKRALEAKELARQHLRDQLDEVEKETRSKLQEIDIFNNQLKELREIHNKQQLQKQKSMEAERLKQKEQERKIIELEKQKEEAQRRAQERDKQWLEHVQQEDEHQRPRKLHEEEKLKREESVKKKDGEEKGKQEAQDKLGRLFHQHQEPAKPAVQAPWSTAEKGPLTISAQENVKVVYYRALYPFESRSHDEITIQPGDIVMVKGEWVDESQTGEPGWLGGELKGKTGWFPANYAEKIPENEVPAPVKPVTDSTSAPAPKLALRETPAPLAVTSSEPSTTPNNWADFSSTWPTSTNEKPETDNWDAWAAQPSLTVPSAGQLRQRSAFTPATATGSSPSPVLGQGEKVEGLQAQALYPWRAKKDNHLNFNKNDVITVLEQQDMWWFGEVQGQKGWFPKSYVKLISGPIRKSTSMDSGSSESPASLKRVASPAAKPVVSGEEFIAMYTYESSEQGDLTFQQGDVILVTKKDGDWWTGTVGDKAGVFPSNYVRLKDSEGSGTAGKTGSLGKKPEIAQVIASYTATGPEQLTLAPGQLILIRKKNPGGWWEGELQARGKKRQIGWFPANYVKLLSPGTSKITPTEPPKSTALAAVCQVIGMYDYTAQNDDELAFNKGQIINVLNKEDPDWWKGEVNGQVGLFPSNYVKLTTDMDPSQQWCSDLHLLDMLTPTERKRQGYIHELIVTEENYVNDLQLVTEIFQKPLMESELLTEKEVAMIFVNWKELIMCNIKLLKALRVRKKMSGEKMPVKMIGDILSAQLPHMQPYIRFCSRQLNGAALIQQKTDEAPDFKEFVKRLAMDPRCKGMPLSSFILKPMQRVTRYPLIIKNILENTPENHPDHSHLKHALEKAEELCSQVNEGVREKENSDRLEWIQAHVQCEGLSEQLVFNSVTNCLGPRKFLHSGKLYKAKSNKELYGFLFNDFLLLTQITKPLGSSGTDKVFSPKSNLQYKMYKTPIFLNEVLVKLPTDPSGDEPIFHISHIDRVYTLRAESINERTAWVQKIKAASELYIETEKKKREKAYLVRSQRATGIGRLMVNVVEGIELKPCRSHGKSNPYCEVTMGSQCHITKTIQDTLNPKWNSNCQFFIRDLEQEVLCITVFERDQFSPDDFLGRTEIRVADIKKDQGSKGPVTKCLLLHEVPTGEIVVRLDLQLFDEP

T2 sequence (Q9NZN5 whole entry, the tested form may be a part): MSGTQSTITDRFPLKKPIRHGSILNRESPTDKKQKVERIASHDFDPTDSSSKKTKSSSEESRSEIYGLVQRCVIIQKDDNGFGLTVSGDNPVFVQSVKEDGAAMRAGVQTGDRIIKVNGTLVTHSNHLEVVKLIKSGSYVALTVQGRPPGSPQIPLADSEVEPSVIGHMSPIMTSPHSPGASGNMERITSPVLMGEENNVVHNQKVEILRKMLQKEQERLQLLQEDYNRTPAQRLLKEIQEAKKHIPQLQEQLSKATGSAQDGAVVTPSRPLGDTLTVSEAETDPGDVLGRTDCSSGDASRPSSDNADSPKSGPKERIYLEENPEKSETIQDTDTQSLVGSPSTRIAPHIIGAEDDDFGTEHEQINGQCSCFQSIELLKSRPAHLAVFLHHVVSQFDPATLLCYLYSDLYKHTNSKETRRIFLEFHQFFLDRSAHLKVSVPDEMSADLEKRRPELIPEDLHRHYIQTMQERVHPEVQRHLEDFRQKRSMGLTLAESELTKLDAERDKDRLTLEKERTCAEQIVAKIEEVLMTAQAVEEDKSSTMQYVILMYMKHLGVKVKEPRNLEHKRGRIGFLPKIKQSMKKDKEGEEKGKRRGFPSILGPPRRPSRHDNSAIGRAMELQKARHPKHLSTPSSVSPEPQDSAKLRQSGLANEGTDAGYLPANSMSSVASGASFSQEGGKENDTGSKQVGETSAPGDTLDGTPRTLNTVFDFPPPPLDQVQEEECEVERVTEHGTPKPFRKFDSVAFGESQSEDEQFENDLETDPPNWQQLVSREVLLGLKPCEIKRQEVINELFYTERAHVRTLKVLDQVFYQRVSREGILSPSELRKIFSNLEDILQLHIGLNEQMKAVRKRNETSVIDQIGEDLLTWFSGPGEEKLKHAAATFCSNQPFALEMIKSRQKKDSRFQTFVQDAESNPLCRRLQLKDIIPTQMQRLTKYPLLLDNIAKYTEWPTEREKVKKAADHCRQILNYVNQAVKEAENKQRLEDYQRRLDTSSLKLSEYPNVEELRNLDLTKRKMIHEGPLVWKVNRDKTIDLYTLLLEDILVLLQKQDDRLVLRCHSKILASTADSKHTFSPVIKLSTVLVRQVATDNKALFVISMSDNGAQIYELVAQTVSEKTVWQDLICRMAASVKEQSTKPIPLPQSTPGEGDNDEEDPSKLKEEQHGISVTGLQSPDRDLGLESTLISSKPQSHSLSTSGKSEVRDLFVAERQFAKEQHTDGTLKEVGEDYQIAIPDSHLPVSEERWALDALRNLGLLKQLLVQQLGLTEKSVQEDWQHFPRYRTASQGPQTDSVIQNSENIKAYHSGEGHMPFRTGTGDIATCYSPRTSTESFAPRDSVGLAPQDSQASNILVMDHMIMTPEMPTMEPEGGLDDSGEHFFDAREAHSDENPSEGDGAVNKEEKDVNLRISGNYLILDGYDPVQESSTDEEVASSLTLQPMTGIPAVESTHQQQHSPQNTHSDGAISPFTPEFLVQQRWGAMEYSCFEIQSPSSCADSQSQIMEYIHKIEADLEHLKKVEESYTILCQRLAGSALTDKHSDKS
Sequence of CDC42/Intersectin-1 (Homo sapiens) (P60953 whole entry, looked up, the tested form may be a part): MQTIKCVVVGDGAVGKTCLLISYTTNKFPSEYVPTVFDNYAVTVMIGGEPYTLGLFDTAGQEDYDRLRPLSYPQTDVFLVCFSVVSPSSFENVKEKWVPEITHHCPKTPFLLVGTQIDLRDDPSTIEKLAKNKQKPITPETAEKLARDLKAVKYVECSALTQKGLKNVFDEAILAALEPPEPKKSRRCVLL
Sequence of CDC42/Intersectin-1 (Homo sapiens) (Q15811 whole entry, looked up, the tested form may be a part): as the sequence (Q15811 whole entry) above

`Cc1cccc(COc2cccc(/C=C3\C(=O)NN(c4ccccc4)C3=O)c2)c1` was tested, and the inhibition (MCF7 [1]) was 70%, the inhibition (MCF7 [2]) was 50% and the fold change (FC) (MCF7 [3]) was 0.15. The fold change (FC) (MCF7 [4]) was 0.4, the fold change (FC) (MCF7 [5]) was 0.77 and the inhibition (MCF7 [6]) was “Active”. For the same compound, the fold change (FC) (Mus musculus [7]) was 0.51, the fold change (FC) (Mus musculus [8]) was 0.8 and the fold change (FC) [9] was 0.03. It also gave a fold change (FC) [10] of 0.71, a fold change (FC) [11] of 0.19 and an inhibition (Mus musculus [12]) of 80%. It also gave a pIC50 [13] of 5.30, a fold change (FC) (Mus musculus [14]) of 2.23 and a fold change (FC) (Mus musculus [15]) of 2.11. The fold change (FC) (Mus musculus [16]) was 1.83, the fold change (FC) (Mus musculus [17]) was 2.36 and the inhibition (Mus musculus [18]) was “Active”. The inhibition (Mus musculus [19]) was “Dose-dependent effect”, the pKd [20] was 7.12 to 7.19 and the inhibition [21] was “inactive”. The inhibition [22] was “inactive”, the inhibition [23] was “inactive” and the pKd [24] was 3.11. For the same compound, the Activity [25] was “inactive”.
